# Measurements published in patent publication US4992470A, “Method of enhancing immune response of mammals” (Iowa State University Research Foundation, Inc., priority 1990, dated 1991).
# Tests used:
# [1] = Stability of HMB (and KIC) in the rumen: incubation in diluted rumen fluid; type: in vitro ADME, steer
# Description: Rumen fluid was collected from a fistulated steer. After filtration and dilution (1:4) with an artificial saliva, 25ml of the solution was added to 50ml plastic tubes. Each tube was fitted with a one-way valve to allow gases to escape while not allowing air into the tube. Each tube was then gassed with C02 and incubated at 39° C. After 30 min a solution of KIC or HMB was added to the tube in concentrations to simulate what would be present in the rumen of an animal consuming .05% of the diet as KIC or HMB. It was estimated that a 50uM concentration would be attained in this case. At timed intervals 50ul samples of this rumen fluid were taken and analyzed for KIC and HMB.
# lymphocytes = assay: In vitro effects of leucine or leucine metabolites on PHA-stimulated lymphocyte blastogenesis (3H-thymidine incorporation); type: cell-based, bovine; settings: for activation at 1000 µM: Bos taurus, Lymphocyte, 72 h, final concentration 1 mM, PHA stimulated, read-out: % Change from No Additive, in vitro lymphocyte blastogenesis (Mean Percent Change, SEM)
# Description: Lymphocyte Blastogenesis Determinations. Blood collections, lymphocyte isolation and blastogenesis assays were performed on isolated bovine cells by using a 3-d culture procedure as described previously in Kuhlman, et al. (1988), J. Nutr., 118:1564-1569.
# Isolated lymphocytes were exposed to 1 and 10 mM Leu and KIC and the metabolites isovalarate, β-hydroxy-β-methyl butyrate (HMB), β-hydroxy-β-methyl glutarate, butyrate, acetate, acetone, acetoacetate, and β-hydroxy butyrate (BOHB). The cells were then stimulated with the mitogen phytohemagglutinin, and incorporation of ^3 H-thymidine into the DNA of the dividing lymphocytes was measured.
# Leucine and Leucine Metabolites. Most of the compounds listed in Table B were purchased from Sigma Chemical Company, St. Louis, MO. KIC was purchased from SOBAC (Paris, France), HMB was synthesized as described in Example 1, and the calcium salt of HMB was purified by crystallization in 95% ethanol. The calcium salt was converted to a sodium salt form and used in subsequent assays. The pH of all compounds was adjusted to approximately 7.3. Compounds were passed through a 0.2-um filter assembly to assure sterility.
# isolated lymphocytes = assay: HMB effects on lymphocyte function in lambs (ex vivo mitogen-stimulated blastogenesis after feeding)
# Description: Animals and Experimental Design. Three sets of twin lambs were housed individually in fiberglass pens. Animals were randomly assigned to control or HMB diets, using a standard basal diet with and without 0.05% HMB.
# Blood Sampling and Lymphocyte Preparation. In the first experiment, animals were bled for lymphocyte blastogenesis assays and T-cell subset analysis 38, 45, and 52 days after dietary treatments began. Blood (50 ml) was collected, aseptically, via jugular venepuncture into 10 ml acid-citrate-dextrose anticoagulant (44 g trisodium citrate, 16 g citric acid and 50 g dextrose per 1 of triple-distilled water). Blood was centrifuged, the buffy coat removed, and 1 volume of buffy coat was diluted with 0.5 volume of plasma which was added to 2 volumes of Sepracell-MN (Sepratech Corporation, Oklahoma City, Okla.). After further centrifugation at 1500 x g for 25 min, the mononuclear layer was removed and washed twice with Hanks' balanced salt solution (HBSS; Gibco, Grand Island, N.Y.) by centrifuging at 150 x g for 15 min. The remaining white blood cells were resuspended in HBSS, and the total number of white blood cells was determined by using an automated cell counter (Coulter Electronics, Hialeah, Fla.). The concentration of the cells was adjusted to 1×20^6 " cells/ml with HBSS.
# Lymphocyte Blastogenesis Determinations. Blastogenesis assays were performed on isolated lymphocytes by using a 3-d culture procedure as described previously. Briefly, isolated lymphocytes were cultured in microtiter plates with 2×10^5 " cells in 0.15 ml of culture medium/well. Culture medium consisted of RPMI media-1640 (Gibco, Grand Island, N.Y.) containing 15% heat-inactivated fetal bovine serum and 1% antibiotic-antimycotic solution (Gibco, Grand Island, N.Y.). Unstimulated and mitogen-stimulated cultures were assayed in triplicate. Mitogens used were phytohemagglutinin-P (PHA), concanavalin A (ConA) and pokeweed mitogen (PWM). PHA was purchased from Difco Laboratories, Detroit, MI; ConA from Miles Laboratories, Elkhart, IN; and PWM from Gibco, New York, N.Y. Microtiter plates were incubated at 37° C. in a humidified 5% CO2 atmosphere. After 48 h, 0.25 uCi of ^3 H-thymidine (New England Nuclear, Boston, Mass.) was added to each well. Eighteen hours later, the cultures were harvested onto glass-fiber filters with an automated sample harvester (Flow Laboratories, Rockville, Mo.), filters were placed in 10 ml CytoScint scintillation solution (ICN Biomedicals, Irvine, CA), and radioactivity was counted in a liquid scintillation counter. This procedure is similar to that described by Kuhlman, et al., J. Nutr., 118:1564-1569.
# Mycoplasma hyopneumoniae = assay: Pigs infected with Mycoplasma: lung lesions, lung fluorescent antibodies, antibody titers; type: in vivo
# Description: (§1) Twelve specific pathogen free (SPF) pigs 4-5 weeks of age were distributed into two groups, each being blocked by gender and litter. All pigs were fed approximately 4% of their body weight of a commercially purchased starter ration. Pigs were penned individually and allowed free access to water.
# (§2) Diets were supplemented with one of two dietary treatments: Control (limestone)(n=6) and HMB (n=6). Dietary treatments were fed at 0.05% of the body weight. HMB was synthesized by the method of Example 1. One week later, pigs were injected with 5 ml/30 kg body weight of a 20% suspension of sheep red blood cells (SRBC) subcutaneously.
# (§3) Fourteen days post dietary treatments, all pigs were challenged via intratracheal inoculation with 5 ml of a ground lung suspension. The suspension was derived from pig pneumonic tissue obtained from a pig experimentally inoculated with Mycoplasma hyopneumoniae. Blood samples were collected once a week for the evaluation of antibodies produced in response to the SRBC and Mycoplasma hyopneumoniae antigenic stimuli. An agglutination assay was used to determine antibody titers produced against SRBC. Titers to Mycoplasma hyopneumoniae were determined using a serum complement fixation assay. At necropsy, the extent of macroscopic pneumonia lesions was recorded and samples from all pigs were submitted for histopathology to assay microscopic lesions. Lung and bronchi samples were cultured and evaluated for the presence of Mycoplasma species (i.e., M. hyorhinis, M. hyosynoviae, and M. hyopneumoniae) and other easily isolated bacteria (i.e., bordetella, pasteurella, and hemophilus).
# [2] = test system: Bordetella broncheseptica; assay: Pigs: nasal degeneration scores; type: in vivo; settings: HMB-fed pigs
# Description: as §1, §2
# (§4) The iliac lymph nodes, liver, spleen, and gastrocnemius muscle were removed from the carcass and weighed. The nasal cavity was examined for evidence of Bordetella broncheseptica infection that will result in nasal turbinate degeneration. Nasal degeneration was scored as to severity with 0 indicating no lesions and the highest score, 3, corresponding to […] degeneration.
# [3] = test system: sheep red blood cells (SRBC); assay: Pigs: antibody titers against sheep red blood cells (agglutination assay); type: in vivo; settings: HMB-fed pigs; control 11.6; * p < .05
# Description: as §1, §2
# as §3, with “Blood samples were collected once a week for the evaluation of antibodies produced in response to the SRBC and Mycoplasma hyopneumoniae antigenic stimuli. An agglutination assay was used to determine antibody titers produced against SRBC.” left out
# [4] = Pigs: organ weights at necropsy; type: in vivo; settings: HMB-fed pigs
# Description: as §1, §2, §4
# [5] = test system: Mycoplasma species and other easily isolated bacteria; assay: Pigs: bacteria cultured from bronchi; type: in vivo; settings: HMB-fed pigs
# Description: as §1, §2
# as §3, with “Blood samples were collected once a week for the evaluation of antibodies produced in response to the SRBC and Mycoplasma hyopneumoniae antigenic stimuli. An agglutination assay was used to determine antibody titers produced against SRBC.” left out
# T lymphocytes [6] = assay: Activation of immune function of T lymphocytes, HMB compared with KIC; set-up: species or system mammals
# [7] = Stability of HMB (and KIC) in the rumen: incubation in diluted rumen fluid; type: in vitro ADME, steer; settings: as far as is known; general statement, oral administration to ruminants
# [8] = rat feeding studies; cited from earlier work
# [9] = cited from earlier work
# T lymphocytes [10] = settings: U.S. Pat. No. 4,835,185; cited from earlier work
# [11] = U.S. Pat. No. 4,835,185; cited from earlier work
# [12] = Hygroscopicity of HMB salts; type: physicochemical; settings: compared with Ca-HMB
# [13] = 0 min after addition, rumen fluid diluted 1:4, 39° C., initial concentration of KIC was estimated
# [14] = 15 min after addition, rumen fluid, 39° C.
# [15] = 30 min after addition, rumen fluid, 39° C.
# [16] = 60 min after addition, rumen fluid, 39° C.
# [17] = 240 min after addition, rumen fluid, 39° C.
# [18] = 480 min after addition, rumen fluid, 39° C.
# [19] = Before Treatment (baseline of HMB group)
compound,measurement,setting,value
"CC(C)(O)CC(=O)O [HMB, β-hydroxy-β-methyl butyric acid]",Stability in rumen environment (in words),[1],quite stable in a rumen environment
same,KIC / HMB in rumen fluid,[1]; [13],60 µM
same,KIC / HMB in rumen fluid,[1]; [14],76 µM
same,KIC / HMB in rumen fluid,[1]; [15],81 µM
same,KIC / HMB in rumen fluid,[1]; [16],71 µM
same,KIC / HMB in rumen fluid,[1]; [17],74 µM
same,KIC / HMB in rumen fluid,[1]; [18],74 µM
same,activation at 1000 µM,lymphocytes,78%
same,"Decays Per Min of 3H Thymidine Incorporated into Isolated Lymphocytes, PHA Stimulation","isolated lymphocytes; After Treatment, diet with 0.05% HMB, control 15,000","18,000 Decays Per Min"
same,"Decays Per Min of 3H Thymidine Incorporated into Isolated Lymphocytes, PWM Stimulation","isolated lymphocytes; After Treatment, diet with 0.05% HMB, control 18,000","25,000 Decays Per Min"
same,"Decays Per Min of 3H Thymidine Incorporated into Isolated Lymphocytes, ConA Stimulation","isolated lymphocytes; After Treatment, diet with 0.05% HMB, control 19,000","21,000 Decays Per Min"
same,"Decays Per Min of 3H Thymidine Incorporated into Isolated Lymphocytes, ConA Stimulation",isolated lymphocytes; [19],"41,000 Decays Per Min"
same,"Decays Per Min of 3H Thymidine Incorporated into Isolated Lymphocytes, PHA Stimulation",isolated lymphocytes; [19],"23,000 Decays Per Min"
same,"Decays Per Min of 3H Thymidine Incorporated into Isolated Lymphocytes, PWM Stimulation",isolated lymphocytes; [19],"21,000 Decays Per Min"
same,"Change in 3H Thymidine incorporation, PWM Stimulation","isolated lymphocytes; after minus before treatment, change in control -14,000","+4,000 Decays Per Min"
same,"Change in 3H Thymidine incorporation, PHA Stimulation","isolated lymphocytes; after minus before treatment, change in control -22,000","-5,000 Decays Per Min"
same,"Change in 3H Thymidine incorporation, ConA Stimulation","isolated lymphocytes; after minus before treatment, change in control -29,000","-20,000 Decays Per Min"
same,Effect on decline in lymphocyte function (in words),"isolated lymphocytes; lambs, 0.05% HMB diet",tended to effect the decline in lymphocyte function
same,M. hyopneumoniae colonies by fluorescent antibody technique (in words),Mycoplasma hyopneumoniae; HMB-fed pigs,decreased
same,Prevention of Mycoplasmal lung damage (in words),Mycoplasma hyopneumoniae; HMB-fed pigs infected with M. hyopneumoniae,can prevent some of the lung damage associated with a Mycoplasmal lung agent
same,Lung or bronchi evaluations (in words),Mycoplasma hyopneumoniae; HMB-fed pigs vs control,no significant differences were seen in the lung or bronchi evaluations
same,M. hyopneumoniae antibody titers (in words),Mycoplasma hyopneumoniae; HMB-fed pigs vs control,no significant differences
same,Lung fluorescent antibodies to M. hyopneumoniae,"Mycoplasma hyopneumoniae; HMB-fed pigs, control 12.6",10.3
same,% lung showing lesions,"Mycoplasma hyopneumoniae; HMB-fed pigs, control 18.7",13.7%
same,M. hyopneumoniae peak titers,"Mycoplasma hyopneumoniae; HMB-fed pigs, serum complement fixation, control 7.1",6.7
same,Extent of mycoplasmal lung infection (in words),"Mycoplasma hyopneumoniae; vs KIC-fed or control animals, not statistically significant",lesser extent of mycoplasmal lung infection than did KIC-fed or control animals
same,Nasal degeneration due to bordetella infection (in words),[2],significant decrease in nasal degeneration due to bordetella infection
same,Severity of nasal turbinate lesions (in words),[2],less severe lesions of the nasal turbinates
same,Nasal degeneration scores (0 = no lesion),"[2]; highest score 3 = moderate degeneration, control 1.6, * p < .05",0.8
same,Red blood cell titers (dilution) day 10-15,[3],15.5 dilution
same,Size of spleen and iliac lymph node (in words),[4],smaller in HMB-fed animals
same,Iliac lymph node weight,"[4]; control 3.8, * p < .05",3.3 g
same,Spleen weight,[4]; control 101,94 g
same,Bacteria cultured in the bronchi (in words),[5],fewer bacteria cultured in the bronchi
same,"Bronchi, presence of bacteria",[5]; control 1.1,0.8
same,Activation of immune function of T lymphocytes relative to KIC (in words),T lymphocytes [6],markedly more effective for activating the immune function of T lymphocytes
same,Rumen destruction (in words),[7],not subject to significant rumen destruction
"CC(C)CC(=O)C(=O)O [KIC, α-keto-isocaproic acid]",Stability in rumen environment (in words),[1],rapidly destroyed by the rumen bacteria
same,KIC / HMB in rumen fluid,[1]; [13],30 µM
same,KIC / HMB in rumen fluid,[1]; [14],15 µM
same,KIC / HMB in rumen fluid,[1]; [15],4 µM
same,KIC / HMB in rumen fluid,[1]; [16],2 µM
same,KIC / HMB in rumen fluid,[1]; [17],2 µM
same,KIC / HMB in rumen fluid,[1]; [18],1 µM
same,Direct effect on the immune system (in words),lymphocytes,have no effect on he immune system directly
same,Effect on blastogenesis (in words),lymphocytes,had no effects on blastogenesis
same,activation at 1000 µM,lymphocytes,-3 ± 7%
same,Amount of KIC required to replace leucine,[8],two to three times as much KIC as the nutritionally required amount of leucine
same,"Cholesterol in meat, milk and eggs (in words)","[9]; U.S. Pat. Nos. 4,760,090 and 4,760,531","cholesterol reduction in meat, milk and eggs"
same,Milk production (in words),"[9]; lactating domestic animals, U.S. Pat. No. 4,758,593",the quantity of milk produced may be increased
same,Egg production (in words),"[9]; laying chickens, U.S. Pat. No. 4,760,531",can also sometimes be increased
same,Wool production (in words),"[9]; mature sheep, U.S. Pat. No. 4,760,090",the amount of wool produced may also be increased
same,Weight gain and/or feed efficiencies (in words),"[9]; milligram amounts of KIC, U.S. Pat. Nos. 4,760,090 and 4,883,817",some increases in the rates of weight gain and/or feed efficiencies
same,Blastogenesis function (in words),T lymphocytes [10],activating the blastogenesis function of the immune systems
same,Plasma cortisol levels (in words),[11],will usually decrease plasma cortisol levels
"CC(C)C[C@H](N)C(=O)O [Leucine, L-leucine]",Direct effect on the immune system (in words),lymphocytes,have no effect on he immune system directly
same,Effect on blastogenesis (in words),lymphocytes,tended to suppress blastogenesis
same,activation at 1000 µM,lymphocytes,-12 ± 6%
CC(C)(O)CC(=O)O [Na-HMB],Hygroscopicity (in words),[12],more hydroscopic than Ca-HMB
CC(O)(CC(=O)O)CC(=O)O [β-hydroxy-β-methyl glutarate],Effect on blastogenesis (in words),lymphocytes,increased blastogenesis slightly
same,activation at 1000 µM,lymphocytes,28%
"CC(O)CC(=O)O (stereo not drawn) [β-hydroxybutyrate, β-hydroxy butyrate]",Effect on blastogenesis (in words),lymphocytes,increased blastogenesis slightly
same,activation at 1000 µM,lymphocytes,25%
